Patent EP0202661B1, “Isolation of castanospermine and its use as an antidiabetic agent” (MERRELL DOW PHARMACEUTICALS INC., priority 1985, dated 1986)

Key:
[1] = test system: Sucrose-Administered Mice; test: Inhibitory action against increase of blood glucose in sucrose-administered mice; format: in vivo, Male ICR-swiss mice; conditions: for Blood Glucose Concentration (mg%) at 30 Min. After Sucrose: fasted mice, sucrose control (0 mg/kg) 205, blank 107
Experimental: Inhibitory Action Against Increase of Blood Glucose in Sucrose-Administered Mice
Male ICR-swiss mice with body weight of 25-35 g were fasted overnight. Sucrose was administered orally by gavage at a dose of 2 g/kg 15 minutes after the similar administration of castanospermine at doses of 0.125 to 60 mg/kg. Animals were sacrificed at 30 minutes after sucrose administration and blood glucose levels were measured by a method using glucose dehydrogenase. […]

[2] = test system: Starch-Administrated Mice; test: Inhibitory action against increase of blood glucose in starch-administered mice; format: in vivo, Male ICR-Swiss mice; conditions: for Blood Glucose Concentration (mg%) at 45 min. After Starch: fasted mice, starch control (0 mg/kg) 126, blank 72
Experimental: Inhibitory Action Against Increase of Blood Glucose in Starch-Administrated Mice
Male ICR-Swiss mice with body weight of 25-35 g were fasted overnight. Starch was administered orally by gavage at a dose of 1 g/kg 15 minutes after the similar administration of castanospermine at doses of 1.9 to 60 mg/kg. Animals were sacrificed at 45 minutes after starch administration and blood glucose levels were measured by a method using glucose dehydrogenase. […]

[3] = test system: intestinal glycosidases (i.e., maltase and sucrase); conditions: rats, cited from earlier work

For `O[C@H]1[C@H](O)[C@@H](O)CN2CC[C@H](O)[C@H]12` [Castanospermine, (1S,6S,7R,8R,8aR)-1,6,7,8-tetrahydroxyindolizidine], the minimal effective dose ([1]; Mus musculus, 0.5 h, oral gavage 15 min before sucrose 2 g/kg, blood glucose 30 min after sucrose, read-out: dose at which the increase in glucose in the blood could be significantly inhibited) was no less than 0.125 mg/kg, the “Blood Glucose Concentration (mg%) at 30 Min. After Sucrose” value ([1]; castanospermine 0.125 mg/kg oral gavage 15 min before sucrose 2 g/kg) was 159 mg% and the “Blood Glucose Concentration (mg%) at 30 Min. After Sucrose” value ([1]; castanospermine 0.25 mg/kg oral gavage 15 min before sucrose 2 g/kg) was 167 mg%. For the same compound, the “Blood Glucose Concentration (mg%) at 30 Min. After Sucrose” value ([1]; castanospermine 0.5 mg/kg oral gavage 15 min before sucrose 2 g/kg) was 153 mg%, the “Blood Glucose Concentration (mg%) at 30 Min. After Sucrose” value ([1]; castanospermine 1.0 mg/kg oral gavage 15 min before sucrose 2 g/kg) was 146 mg% and the “Blood Glucose Concentration (mg%) at 30 Min. After Sucrose” value ([1]; castanospermine 2.0 mg/kg oral gavage 15 min before sucrose 2 g/kg) was 116 mg%. For the same compound, the minimal effective dose ([2]; Mus musculus, 0.75 h, oral gavage 15 min before starch 1 g/kg, blood glucose 45 min after starch, read-out: dose at which the increase in glucose in the blood could be significantly inhibited) was no less than 3.8 mg/kg, the “Blood Glucose Concentration (mg%) at 45 min. After Starch” value ([2]; castanospermine 1.9 mg/kg oral gavage 15 min before starch 1 g/kg) was 139 mg% and the “Blood Glucose Concentration (mg%) at 45 min. After Starch” value ([2]; castanospermine 3.8 mg/kg oral gavage 15 min before starch 1 g/kg) was 83 mg%. The “Blood Glucose Concentration (mg%) at 45 min. After Starch” value ([2]; castanospermine 7.5 mg/kg oral gavage 15 min before starch 1 g/kg) was 85 mg%, the “inhibition of intestinal glycosidases (i.e., maltase and sucrase)” value ([3]; administered by injection, Saul et al., Proc. Nat'l. Acad. Sci. USA, 82, 93 (1985)) was “inhibits intestinal glycosidases” and the “adverse observations at high doses” value ([3]; high doses administered by injection, Saul et al. (1985)) was “diarrhea and high levels of intestinal bacterial flora were observed”.
